{
  "source": "patent US10155721B2",
  "about": "“Lignanamides and a method of treating neurodegenerative diseases by using the same” (Macau University of Science and Technology, priority 2017, dated 2018)",
  "format_in_all_cases": "cell-based",
  "key": {"[1]": {"test_system": "SH-SY5Y cells", "test": "MTT assay and microscopy, Tg-induced cytotoxicity in SH-SY5Y cells", "details": "for Tg-induced cell death and cell growth (microscopic observations): SH-SY5Y cells pre-treated with 50 μM, FIG. 13A; for ER stress-mediated Tg-induced cytotoxicity in SH-SY5Y cells (MTT assay): pre-treatment 12.5, 25, 50 μM for 12 h, then Tg 48 h, FIG. 13C", "description": "(§1) In one example embodiment, effects of the Sativamide A and the Sativamide B on ER stress-induced neurotoxicity on a neuroblastoma cell models (SH-SY5Y cells) are tested. SH-SY5Y cells are purchased from the American Type Culture Collection (ATCC). SH-SY5Y cells are cultured in 1:1 mixture of DMEM and F12 medium containing 10% fetal bovine serum (Gibco, Carlsbad, USA). SH-SY5Y cells are incubated at 37° C. in a humidified atmosphere of 5% CO2 and 95% air. SH-SY5Y cells are seeded into 96-well culture plates (5.0×10^3 cells/well) and cultured under standard conditions for 12 h. Cells are then treated with the Sativamide A and the Sativamide B at concentrations of 12.5 μM, 25 μM and 50 μM or a vehicle for another 12 h. After treatment, the whole medium is replaced with fresh medium containing Tm (0.1 or 1.0 μM) or Tg (10 or 100 nM) and cells are incubated for additional 48 h. After incubation, supernatant is changed by fresh medium and MTT is given at a concentration of 0.5 mg/mL. After incubation at 37° C. for 4 h, the absorbance is measured at 570 nm with a micro-plate reader."}, "[2]": {"test_system": "PC12 cells", "test": "MTT assay and microscopy, tunicamycin (Tm)-induced cytotoxicity in PC12 cells", "details": "for cell death and cell growth induced by Tm (microscopic observations): PC12 cells pre-treated with 50 μM, FIG. 12A; for Tm-induced PC12 cell toxicity (MTT assay): pre-treatment 12.5, 25, 50 μM for 12 h, then Tm 48 h, FIG. 12B", "description": "(§2) In one example embodiment, effects of the Sativamide A and the Sativamide B ER stress-induced neurotoxicity on a neuroblastoma cell model (PC12 cells) are tested. PC-12 cells are purchased from the American Type Culture Collection (ATCC). PC-12 cells are cultured in DMEM medium (Invitrogen) supplemented with 100 U/ml penicillin, 100 μg/mL streptomycin, and 10% horse serum and 5% fetal bovine serum (Gibco, Carlsbad, USA). The cells are incubated at 37° C. in a humidified atmosphere of 5% CO2 and 95% air. PC12 cells are seeded into 96-well culture plates (5.0×10^3 cells/well) and cultured under standard conditions for 12 h. Cells are then treated with the Sativamide A and the Sativamide B at concentrations of 12.5 μM, 25 μM and 50 μM or a vehicle for another 12 h. After treatment, the whole medium is replaced with fresh medium containing tunicamycin (Tm) (0.1 nM or 1.0 μM) or thapsigargin (Tg) (10 nM or 100 nM) and the cells are incubated for additional 48 h. After incubation, supernatant is changed by fresh medium and thiazolyl blue tetrazolium bromide (MTT) is given at a concentration of 0.5 mg/mL. After incubation at 37° C. for 4 h, the absorbance is measured at 570 nm with a micro-plate reader."}, "[3]": {"test_system": "SH-SY5Y cells", "test": "Effect of the compounds on viability of SH-SY5Y cells", "details": "final concentration 50 μM, FIGS. 13A to 13C", "description": "as §1"}, "[4]": {"test_system": "PC12 cells", "test": "MTT assay, thapsigargin (Tg)-induced cytotoxicity in PC12 cells", "details": "pre-treatment 12.5, 25, 50 μM for 12 h, then Tg 48 h; FIG. 12C", "description": "as §2"}, "[5]": {"test_system": "PC12 cells", "test": "Effect of the compounds on viability of PC12 cells", "details": "final concentration 50 μM, FIGS. 12A to 12C", "description": "as §2"}, "[6]": {"test_system": "SH-SY5Y cells", "test": "MTT assay, Tm-induced cytotoxicity in SH-SY5Y cells (FIG. 13B)", "details": "pre-treatment 12.5, 25, 50 μM for 12 h, then inducer 48 h", "description": "as §1"}},
  "data": [
    {"molecule": "O=C(NCCc1ccc(O)cc1)C1=C[C@]23C=CC(=O)[C@@]2(O)c2cc(O)c(O)cc2[C@@H]3[C@H]1C(=O)NCCc1ccc(O)cc1", "note": "[Sativamide A]", "values": [
      {"measurement": "Tg-induced cell death and cell growth (microscopic observations)", "setting": "[1]", "value": "markedly reduced"},
      {"measurement": "ER stress-mediated Tg-induced cytotoxicity in SH-SY5Y cells (MTT assay)", "setting": "[1]", "value": "suppress ER stress-mediated Tg-induced cytotoxicity in SH-SY5Y cells tin a dose-dependent manner"},
      {"measurement": "cell death and cell growth induced by Tm (microscopic observations)", "setting": "[2]", "value": "markedly reduced"},
      {"measurement": "Tm-induced PC12 cell toxicity (MTT assay)", "setting": "[2]", "value": "mitigate the Tm-induced PC12 cell toxicity in a dose-dependent manner"},
      {"measurement": "adverse effects on cell viability", "setting": "[3]", "value": "no adverse effects on cell viability"},
      {"measurement": "ER stress-mediated cytotoxicity in PC12 cells induced by Tg (MTT assay)", "setting": "[4]", "value": "suppress ER stress-mediated cytotoxicity in PC12 cells that is induced by Tg in a dose-dependent manner"},
      {"measurement": "adverse effects on cell viability", "setting": "[5]", "value": "no adverse effects on cell viability"},
      {"measurement": "Tg-induced SH-SY5Y cell toxicity (MTT assay, FIG. 13B)", "setting": "[6]", "value": "mitigate the Tg-induced SH-SY5Y cell toxicity in a dose-dependent manner"}
    ]},
    {"molecule": "CO[C@]12C(=O)C=C[C@]13C=C(C(=O)NCCc1ccc(O)cc1)[C@H](C(=O)NCCc1ccc(O)cc1)[C@@H]3c1cc(O)c(O)cc12", "note": "[Sativamide B, 10-methoxyl-sativamide A]", "values": [
      {"measurement": "Tg-induced cell death and cell growth (microscopic observations)", "setting": "[1]", "value": "markedly reduced"},
      {"measurement": "ER stress-mediated Tg-induced cytotoxicity in SH-SY5Y cells (MTT assay)", "setting": "[1]", "value": "suppress ER stress-mediated Tg-induced cytotoxicity in SH-SY5Y cells tin a dose-dependent manner"},
      {"measurement": "cell death and cell growth induced by Tm (microscopic observations)", "setting": "[2]", "value": "markedly reduced"},
      {"measurement": "Tm-induced PC12 cell toxicity (MTT assay)", "setting": "[2]", "value": "mitigate the Tm-induced PC12 cell toxicity in a dose-dependent manner"},
      {"measurement": "adverse effects on cell viability", "setting": "[3]", "value": "no adverse effects on cell viability"},
      {"measurement": "ER stress-mediated cytotoxicity in PC12 cells induced by Tg (MTT assay)", "setting": "[4]", "value": "suppress ER stress-mediated cytotoxicity in PC12 cells that is induced by Tg in a dose-dependent manner"},
      {"measurement": "adverse effects on cell viability", "setting": "[5]", "value": "no adverse effects on cell viability"},
      {"measurement": "Tg-induced SH-SY5Y cell toxicity (MTT assay, FIG. 13B)", "setting": "[6]", "value": "mitigate the Tg-induced SH-SY5Y cell toxicity in a dose-dependent manner"}
    ]}
  ]
}
